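Growth conditions: 96-well plates. Treatment: test compound, 48 hours, 5 concentrations. Analysis: linear interpolation between bracketing concentrations; unreached endpoints set to highest concentration. TGI marks complete inhibition of growth.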
Assays:
Test in all cases: NCI tumour cell line growth inhibition, 48 h
COLO 205 colon = test system: COLO 205 colon
HCT-116 colon = test system: HCT-116 colon
K-562 leukemia = test system: K-562 leukemia
OVCAR-4 ovarian = test system: OVCAR-4 ovarian
OVCAR-8 ovarian = test system: OVCAR-8 ovarian
RXF 393 renal = test system: RXF 393 renal
SK-OV-3 ovarian = test system: SK-OV-3 ovarian
U251 CNS = test system: U251 CNS
DU-145 prostate = test system: DU-145 prostate
NCI/ADR-RES ovarian = test system: NCI/ADR-RES ovarian

Compound | TGI (COLO 205 colon) [µM] | TGI (HCT-116 colon) [µM] | TGI (K-562 leukemia) [µM] | TGI (OVCAR-4 ovarian) [µM] | TGI (OVCAR-8 ovarian) [µM] | TGI (RXF 393 renal) [µM] | TGI (SK-OV-3 ovarian) [µM] | TGI (U251 CNS) [µM] | TGI (DU-145 prostate) [µM] | TGI (NCI/ADR-RES ovarian) [µM]
c1ccc(C2C3=C(Nc4ncnn42)c2ccccc2C3)cc1 (stereo not given) | 25.8 | > 100 | > 100 | > 100 | > 100 | > 100 | > 100 | 17.7 |  | 
COc1ccc(N2C(=O)C3c4[nH]c5ccc(OCc6ccccc6)cc5c4C4CCC(C(C)(C)C)CC4C3C2=O)cc1 (stereo not given) | > 100 | > 100 | > 100 | 59.4 | > 100 | > 100 | > 100 | 60.4 | > 100 | > 100
O=C1/C(=C/c2ccccc2)N=C(c2ccccc2)N1n1c(-c2ccccc2)nc2ccccc2c1=O | > 100 | > 100 | > 100 | > 100 | > 100 | > 100 | > 100 | > 100 | > 100 | > 100
NC(C(F)(F)F)(C(F)(F)F)P(=O)(Cc1ccccc1)Cc1ccccc1 | > 100 | > 100 | > 100 | > 100 | > 100 | > 100 | > 100 | > 100 | > 100 | > 100
CCCCCCCCCCCCCCCCCCNc1ccn(C2OC(COP(=O)(O)OCC3OC(n4ccc(NC(=O)CCCCCCCCCCCCCCCCC)nc4=O)C(OC(C)=O)C3OC(C)=O)C(OC(C)=O)C2OC(C)=O)c(=O)n1 (stereo not given) | > 100 | > 100 | > 100 | > 100 | > 100 | > 100 | > 100 | > 100 | > 100 | > 100
COc1ccc(C2Oc3c(cc(O)c(OC)c3C)[C@@H]2C)cc1OC (stereo not given in full) | > 100 | > 100 | > 100 | > 100 | > 100 | > 100 | > 100 | > 100 |  | 
CC1(C)OCC(COC(=O)C=[N+]=[N-])O1 (stereo not given) | > 100 | > 100 |  | > 100 |  | > 100 | > 100 | > 100 | > 100 | 
Nc1nc2cc3nc(N)c(N)nc3cc2nc1N | > 100 | > 100 |  |  | > 100 | > 100 | > 100 | > 100 | > 100 | > 100
S=C(N/N=C\C=N/NC(=S)N1CCCCC1)N1CCCCC1 | > 100 | > 100 | > 100 |  | > 100 | 6.06 | > 100 | > 100 | > 100 | > 22.3
CC(O[Si](c1ccccc1)(c1ccccc1)C(C)(C)C)[C@H](NC(=O)OC(C)(C)C)C(=O)O[Si](c1ccccc1)(c1ccccc1)C(C)(C)C (stereo not given in full) | 31.3 | 23.7 | 40.6 | 16.5 | 33.6 | 26.9 | 30 | 31.7 | 25.6 | 29
CC1(O)CC(C(F)(F)F)(C(F)(F)F)OC1=O (stereo not given) | > 10 | > 10 | > 10 | > 10 | > 10 |  | > 10 | > 10 | > 10 | > 10
COc1cc(O)c(/C=N/N=C(\N)NO)c(OC)c1 | > 10 | > 10 | > 10 | > 10 | > 10 | > 10 | > 10 | > 10 | > 10 | > 10
CC(C)c1ccc2[nH]c(O)c(-c3[nH]c4ccccc4c3N=O)c2c1 | 18.1 | 14 | 17.8 | 17.6 | 14.6 | 6.66 | 19.6 | 19.9 | 20.8 | 22
O=C(/C=C/c1ccc(O)c([N+](=O)[O-])c1)CC(=O)/C=C/c1ccc(O)c([N+](=O)[O-])c1 | > 100 | > 100 |  | > 100 | 39.6 | > 100 | > 100 | 55.3 | > 100 | > 100
CN(C)CCCOc1nc2c(c(=O)n(C)c(=O)n2C)n1C (tested in a mixture with another compound) | > 100 | > 100 | > 100 | > 100 | > 100 | > 100 | > 100 | > 100 | 39.5 | > 100
COc1ccc(C2CC(c3c(O)ccc4ccccc34)=NN2c2ccc([N+](=O)[O-])cc2[N+](=O)[O-])cc1OC (stereo not given) | 49 | > 100 | 20.2 | > 100 | 27.3 | > 71.1 | > 88 | > 100 | > 100 | 17.4
COc1ccc(-c2cc(-c3ccco3)c(C#N)c(=S)n2C2OC(COC(C)=O)C(OC(C)=O)C(OC(C)=O)C2OC(C)=O)cc1 (stereo not given) | 16.2 | 22.8 | > 100 | 10 | 13 | 21.3 | 26.8 | 17.8 | 20.3 | 37.7
CC(C)(C)C1=C(Br)C(Br)(C(C)(C)C)OP1(=O)c1ccccc1 (stereo not given) | > 100 | > 100 | > 100 | > 100 | > 100 | > 100 | > 100 | > 100 | > 100 | > 100
NC(=O)N/N=C(\Cc1nc2ccc(Cl)cc2[nH]c1=O)C(=O)Nc1ccc(Cl)cc1Cl | > 100 | > 100 | > 100 | > 100 | > 100 |  | > 100 | > 100 | > 100 | > 100
CC(C)(C)c1ccc2c(c1)CNCCNCc1cc(C(C)(C)C)ccc1OCC1(CO2)COc2ccc(C(C)(C)C)cc2CNCCNCc2cc(C(C)(C)C)ccc2OC1 | 2.29 | 2.99 |  | 2.93 | 1.45 |  |  | 0.479 | 3.15 | 3.07
O=C(CC(=O)n1nc(-c2ccccc2)c(N=Nc2ccccc2C(=O)O)c1-c1ccccc1)Nc1ccc(Cl)cc1 | > 100 | > 100 | > 100 |  | > 100 | 80.8 |  | > 100 |  | 
OCC1CCCCCCCCCCC12SCCCS2 (stereo not given) | > 100 | > 100 | > 100 | > 100 |  |  | > 100 | > 100 | > 100 | > 100

Compound | TGI (COLO 205 colon) [µM] | TGI (HCT-116 colon) [µM] | TGI (K-562 leukemia) [µM] | TGI (OVCAR-4 ovarian) [µM] | TGI (OVCAR-8 ovarian) [µM] | TGI (RXF 393 renal) [µM] | TGI (SK-OV-3 ovarian) [µM] | TGI (U251 CNS) [µM] | TGI (DU-145 prostate) [µM] | TGI (NCI/ADR-RES ovarian) [µM]
COc1cc2c(cc1OC)C1=Cc3cc(OC)c(OC)cc3C(C)N1C=C2 (stereo not given) | > 100 | > 100 | > 100 |  | > 100 | > 100 | > 100 | > 100 | > 100 | > 100
N.N.N.O=[N+]([O-])[O-].O=[N+]([O-])[O-].O=[N+]([O-])[O-].O=[N+]([O-])[O-].[Co+3] | > 100 | > 100 | > 100 | > 100 | > 100 |  | > 100 | > 100 |  | 
O=C(Nc1ccc(Br)cc1)c1c(-c2ccccc2)c2ccc(O)cc2oc1=O | > 10 |  | > 10 | > 10 | > 10 | > 10 | > 10 | > 10 | > 10 | > 10
Cn1cc2ccccc2c1-c1nc(N)nc(F)n1 | > 100 | > 100 | > 100 | > 100 | > 100 | > 100 | > 100 | > 100 |  | 
O=C(O)c1c2c(cc3c1CC1(Cc4ccccc4C1)C3)CCC2 | > 100 |  | > 100 | > 100 | > 100 | > 100 | > 100 | > 100 | > 100 | > 100
CC[C@]1(Cc2ccc(OC)c(OC)c2)CN(S(=O)(=O)c2ccc(C)cc2)C[C@@H]1OC(C)=O | > 100 |  | > 100 | > 100 | > 100 | > 100 | > 100 | > 100 | > 100 | > 100
O=C1C(Cl)=C(N2CCN(C3=C(Cl)C(=O)c4ccccc4C3=O)CC2)C(=O)c2ccccc21 | 3.1 | 2.76 |  | 2.94 | 3.16 | 3.02 | 28 | 6.19 | 14.4 | 3.51
Nc1ccc2nc(-c3ccccn3)c(-c3ccccn3)nc2c1 | > 100 | > 100 | > 100 | > 100 | > 100 | > 100 |  | > 100 | > 100 | > 100
CN1C(=O)C2C(=O)N(Cc3ccccc3)CC(=O)N2c2cccnc21 (stereo not given) | > 100 | > 100 | > 100 | > 100 | > 100 | > 100 | > 100 | > 100 |  | > 100
CC(C)=CCOC(=O)C(C)=[N+]=[N-] | > 100 | > 100 | > 100 | > 100 | > 100 |  |  | > 100 | > 100 | > 100
Cc1cc(N(CCC#N)CCC#N)ccc1/C=N/NC(=O)c1cc(Cl)ccc1O | > 100 | > 100 |  | > 100 | > 100 | > 100 | > 100 | > 100 | > 100 | > 100
C[C@@]12[C@H]3CC[C@@H]1[C@H](O)C(=O)N2CC3 | > 100 |  | > 100 | > 100 | > 100 | > 100 | > 100 | > 100 | > 100 | > 100
c1ccc2c(c1)OC(N1CCCC1)c1cnc(N3CCCC3)nc1-2 (stereo not given) | > 100 | > 100 | > 100 | > 100 | > 100 | 47.8 | > 100 | > 100 | > 100 | 
NC(N)=NS(=O)(=O)c1ccc(NCc2c3ccccc3[n+]([O-])c3ccccc23)cc1 | > 100 | 31.9 | > 100 | 85.3 | > 100 |  | > 100 | > 100 |  | 
Cc1nc2c(sc(=S)n2-c2ccccc2)c2nc3ncccc3n12 | > 100 | > 100 | > 100 |  | > 100 | > 100 | > 100 | > 100 | > 100 | > 100
Cc1ccc(-c2c(C#N)c(-c3ccccc3)n(NS(=O)(=O)c3ccccc3)c(=O)c2C#N)cc1 | > 100 | > 100 | > 100 | > 100 | > 100 | > 100 | > 100 | > 100 |  | > 100
CCOC(=O)C1Cc2[nH]c3ccccc3c2C(C)C1C (stereo not given) | 32.6 | 32.6 | > 100 | 30.9 | 13.4 |  | 45.3 | 35.1 |  | 
C=C1CC(COc2cc(=O)oc3ccccc23)(c2ccccc2)OC1=O (stereo not given) | 3.1 | 2.87 | 3.1 | 4.64 | 4.87 |  | 16.1 | 25.3 | 5.74 | 25.1
O=C(O)c1cc2c(cc1CC(Cc1ccc3c(c1)CCC3)C(=O)O)CCC2 (stereo not given) | > 100 | > 100 |  | > 100 | > 100 | > 100 | > 100 | > 100 | > 100 | > 100
Nc1cc(CO)cc(Nc2nc3ccc(Cl)cc3c3[nH]c4ccccc4c23)c1 | 11.6 | 25.4 | 27.3 |  | 18.5 |  | 22.2 | 23.9 | 15.2 | 42.5
COc1ccc(C(C#N)NNC(=O)c2ccccc2O)cc1OC (stereo not given) | > 100 | > 100 | > 100 | > 100 | > 100 | 36.4 | > 100 | > 100 |  | 
CCCc1cc(=O)c2c(C)c3[nH]c4ccc(Cl)cc4c3c(C)c2[nH]1 | 3.89 | 3.09 |  | 3.43 | 6.31 | 3.86 |  | 3.65 | 18.9 | 10.2

Source: PubChem BioAssay (NCI)
